# From US20260191815A1, “THIOACRYLAMIDE DERIVATIVES FOR USE IN THE PREVENTION OR TREATMENT OF LIVER FIBROSIS” (CMR CUREDIAB METABOLIC RESEARCH GMBH, priority 2022, published 2026)
# Key:
# [1] = test system: caspase 3/7 activity in HepG2 cells; test: Caspase 3/7 activity provoked by palmitate in HepG2 cells; type: cell-based
# Method: (§1) The potential protective effect of HK1 and HK3 on caspase 3/7 activity in HepG2 cells and primary human hepatocytes was analysed.
# (§2) HepG2 cells were obtained from Merck (Darmstadt, Germany) (ECACC-certified), while primary human hepatocytes were obtained from Thermo Fisher Scientific (Waltham, MA, USA), and all were cultured according to the instructions of the respective manufacturers. During experiments, cells were cultured in serum-free medium. Unless otherwise stated, cells were treated with 200 μM bovine serum albumin (BSA)-conjugated palmitate (Cayman Chemicals, Ann Arbor, MI) alone or in combination with 10 μM HK1 (Taros Chemicals GmbH & Co. KG, Dortmund, Germany) and HK3 (Taros Chemicals GmbH & Co. KG, Dortmund, Germany) 30 min prior to palmitate exposure for 24 hours. The vehicle BSA was used according to the palmitate concentration and DMSO according to HK1 and HK3 concentration. 2 μM Staurosporine (Abcam, Cambridge, GB) was used as a positive and 100 μM Caspase 3/7 inhibitor (CI) (Cayman Chemicals) as a negative control.
# (§3) Differences were analysed by one-way ANOVA.
# A hepatoprotective effect was determined as described in Example 4. A treatment was performed with HK1, HK2, HK3, HK4 or HK5 (100 nM) either alone or in combination with palmitate (200 μM).
# Differences were analysed by one-way ANOVA, n=4.
# [2] = test system: caspase 3/7 activity in primary human hepatocytes; test: Caspase 3/7 activity provoked by palmitate in primary human hepatocytes; type: cell-based
# Method: as §1, §2, §3
# [3] = test system: alpha-1 type 1 collagen (COL1A1) protein in LX2 cells; test: Simple Western of COL1A1 protein in TGF-β1-stimulated LX2 hepatic stellate cells; type: cell-based, human; details: 5 ng/ml TGF-β1, 24 h, LX2 cells
# Method: (§4) The human hepatic stellate cell line LX2 was purchased from Merck. The cells were used up to passage ten and incubated under sterile conditions at 37° C. and 5% CO2. The cells were cultivated in medium containing Dulbecco's Modified Eagle's Medium with 4.5 g/l glucose (ThermoFisher), 4 mmol/l glutamine (ThermoFisher), 2% fetal bovine serum (FBS) (Merck), 100 U/ml penicillin and 100 μg/ml streptomycin (Merck). After 2 days, LX2 cells were starved for FBS for 24 h and then pretreated with 10 μM HK1 (Taros Chemicals GmbH & Co. KG) or 10 μM HK3 (Taros Chemicals GmbH & Co. KG) for 30 min. Subsequently, 5 ng/ml recombinant TGF-β1 (R&D Systems, Minneapolis, MN, USA) was added to the hepatic stellate cell cultures for 24 h. LX2 cells were also incubated with 5 ng/ml TGF-β1 alone as positive control for the hepatic stellate cell activation. Recombinant TGF-β1 was dissolved in sterile 4 mmol/l HCl (Merck) containing 0.1% bovine serum albumin (Roth Karlsruhe, Germany) as carrier protein. HK1 and HK3 were dissolved in sterile dimethyl sulfoxide (DMSO) (Sigma-Aldrich, Munich, Germany). Stimulations with 10 μM HK1, 10 μM HK3 and the corresponding vehicles (HCl and DMSO with or without HCl) alone for 24 h were also included as treatments.
# (§5) For the measurement of the pro-fibrotic proteins, Western Blotting was performed. Proteins were extracted from whole cell lysate of LX2 cells using RIPA lysis buffer containing 50 mmol/l Tris-HCl (pH 8.0), 150 mmol/l NaCl, 1% IGEPAL® CA-630, 0.5% sodium deoxycholate, 0.1% sodium dodecyl sulfate, 10% PhosSTOP Phosphatase Inhibitor Cocktail (Roche, Basel, Switzerland) and 10% cOmplete Mini Protease Inhibitor Cocktail (Roche). Lysates were centrifuged at 14850×g for 15 min at 4° C. Then, the total protein content of the lysates was determined using a bicinchoninic acid protein assay (ThermoFisher Scientific) in accordance with the manufacturer's instructions. The quantification of protein abundance was performed by Simple Western size-based assays using a 12-230 kDa and 66-440 kDa Separation Module (ProteinSimple, San Jose, CA, USA) according to the manufacturer's instructions. This fully automated Western blotting system is based on a capillary electrophoresis technology. The separation, immobilization to the capillary wall via a proprietary, photoactivated capture chemistry and immunodetection of the proteins using a horseradish peroxidase (HRP)-conjugated secondary antibody and chemiluminescent substrate take place directly in the capillary without gel separation and transfer steps to blotting paper. The chemiluminescence is measured at multiple exposure times and automatically quantified by the Compass for Simple Western software (version 4.1.0) (ProteinSimple). The chemiluminescent signal for immunodetected proteins, which can be represented as an electropherogram or virtual blot-like image, is automatically quantified by calculation of the area under the curve of the peak.
# (§6) The software reports the molecular weight, the area (in an arbitrary unit and in percent) and signal to noise ratio for each protein detected. The primary antibodies for the recognition of endogenous levels of total alpha-1 type 1 collagen (COL1A1) protein (#72026) and total fibronectin 1 (FN1) protein (#26836) were purchased from Cell Signaling Technology (Danvers, MA, USA). The anti-rabbit HRP-linked secondary antibody was from ProteinSimple. […]
# (§7) Differences were analysed by one-way ANOVA followed by the Tukey method as correction for multiple testing.
# [4] = test system: fibronectin 1 (FN1) protein in LX2 cells; test: Simple Western of FN1 protein in TGF-β1-stimulated LX2 hepatic stellate cells; type: cell-based, human; details: 5 ng/ml TGF-β1, 24 h, LX2 cells
# Method: as §4, §5, §6, §7
# [5] = test system: leukaemia inhibitory factor (LIF) secretion by LX2 cells; test: Olink Inflammation immunoassay of LX2 supernatants: LIF; type: cell-based, human; details: 5 ng/ml TGF-β1
# Method: as §4, with “Recombinant TGF-β1 was dissolved in sterile 4 mmol/l HCl (Merck) containing 0.1% bovine serum albumin (Roth Karlsruhe, Germany) as carrier protein. HK1 and HK3 were dissolved in sterile dimethyl sulfoxide (DMSO) (Sigma-Aldrich, Munich, Germany). Stimulations with 10 μM HK1, 10 μM HK3 and the corresponding vehicles (HCl and DMSO with or without HCl) alone for 24 h were also included as treatments.” left out
# (§8) LX2 cells were cultured and treated as described in Example 1. […] This protein quantification method is based on a proximity extension assay technology, which combines a dual-recognition immunoassay using two matched antibodies labelled with DNA oligonucleotides, with a polymerase chain reaction (PCR) amplification and a microfluidic quantitative real-time PCR as readout. […]
# as §7
# [6] = test system: vascular endothelial growth factor A (VEGFA) secretion by LX2 cells; test: Olink Inflammation immunoassay of LX2 supernatants: VEGFA; type: cell-based, human; details: 5 ng/ml TGF-β1
# Method: as §4, with “Recombinant TGF-β1 was dissolved in sterile 4 mmol/l HCl (Merck) containing 0.1% bovine serum albumin (Roth Karlsruhe, Germany) as carrier protein. HK1 and HK3 were dissolved in sterile dimethyl sulfoxide (DMSO) (Sigma-Aldrich, Munich, Germany). Stimulations with 10 μM HK1, 10 μM HK3 and the corresponding vehicles (HCl and DMSO with or without HCl) alone for 24 h were also included as treatments.” left out
# as §8, §7
# [7] = test system: interleukin-6 (IL-6) secretion by LX2 cells; test: Olink Inflammation immunoassay of LX2 supernatants: IL-6; type: cell-based, human; details: 5 ng/ml TGF-β1
# Method: as §4
# LX2 cells were cultured and treated as described in Example 1. After the incubation time, the supernatants of LX2 cells were collected, centrifuged for 10 min at 2000×g at 4° C. and transferred to new tubes to measure 92 proteins in the cell culture supernatants simultaneously using the Olink Inflammation multiplex immunoassay (Olink proteomics, Uppsala, Sweden). This panel covers 92 proteins, including pro- and anti-inflammatory cytokines, growth factors, chemokines and factors involved in biological processes such as apoptosis, inflammatory and immune response, cell adhesion, chemotaxis, or fibrosis. This protein quantification method is based on a proximity extension assay technology, which combines a dual-recognition immunoassay using two matched antibodies labelled with DNA oligonucleotides, with a polymerase chain reaction (PCR) amplification and a microfluidic quantitative real-time PCR as readout. The biomarker concentrations are given as normalized protein expression (NPX) values, which were generated from the threshold cycle values from the qPCR, and represent an arbitrary unit on a log 2 scale.
# as §7
compound,measurement,setting,value
"CCCCCCCCCCCCCCCC(=O)O [palmitate, reference compound]",activity at 200 µM,"[1]; Homo sapiens, palmitate 200 μM alone, 24 h, read-out: caspase 3/7 activity, % of control",429%
same,activity at 200 µM,"[2]; Hepatocyte, palmitate 200 μM alone, read-out: caspase 3/7 activity, % of control",129%
"CN[C@@H]1C[C@H]2O[C@@](C)([C@@H]1OC)n1c3ccccc3c3c4c(c5c6ccccc6n2c5c31)C(=O)NC4 [Staurosporine, reference compound]",activity at 2 µM,"[1]; Homo sapiens, 2 μM, positive control",687%
"TGF-β1: recombinant TGF-β1 (R&D Systems), positive control for the hepatic stellate cell activation",increase of protein levels of COL1A1 compared to untreated cells,[3],2.6±0.2 fold
same,increase of protein levels of FN1 compared to untreated cells,[4],3.0±0.2 fold
same,increased secretion of LIF compared to untreated LX2 cells,[5],35.40±9.76 fold
same,increased secretion of VEGFA compared to untreated LX2 cells,[6],13.89±2.40 fold
same,increased secretion of IL-6 compared to untreated LX2 cells,[7],4.99±2.01 fold
"COC[C@@H]1CCCN1S(=O)(=O)c1ccc2c(c1)C(=O)C(=O)N2 [Caspase 3/7 inhibitor, reference compound]","caspase 3/7 activity, % of control",[1]; 100 μM caspase 3/7 inhibitor + palmitate 200 μM,29.65%±24.56%
same,"caspase 3/7 activity, % of control",[2]; 100 μM inhibitor + palmitate 200 μM,21.23%±4.33%
